Reference: the Kinase Knowledgebase extract (Sharma et al. 2016)
pIC50, pKi: −log10 of the molar value. Where “and” joins values, the source holds several entries; their conditions need not be identical. Equal entries are not always repeated.

These molecules were tested against MAPK14 (human) (UniProt Q16539) (assay: Inhibition of MAPK14 Kinase Activity).
Chain of MAPK14 (human) (Q16539 whole entry, looked up): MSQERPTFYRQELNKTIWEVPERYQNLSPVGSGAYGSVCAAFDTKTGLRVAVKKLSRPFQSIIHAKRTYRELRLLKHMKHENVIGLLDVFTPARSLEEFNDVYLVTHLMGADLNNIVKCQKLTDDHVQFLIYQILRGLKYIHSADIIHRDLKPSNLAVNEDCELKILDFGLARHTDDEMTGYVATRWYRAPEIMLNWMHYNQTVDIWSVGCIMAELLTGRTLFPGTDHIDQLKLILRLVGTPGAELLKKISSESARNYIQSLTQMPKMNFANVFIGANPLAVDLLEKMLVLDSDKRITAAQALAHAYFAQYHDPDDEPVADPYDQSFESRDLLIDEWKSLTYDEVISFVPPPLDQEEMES

SMILES | pIC50 | pKi
CC(C)n1c(NCC(N)=O)nc(OCc2ccc(F)cc2F)c(Br)c1=O | 7.85 | 8.15
CC(C)n1c(CCC(N)=O)nc(OCc2ccc(F)cc2F)c(Cl)c1=O | 5.69 | 6.01
CC(C)n1c(N2CC[C@@H](NCCO)C2)nc(OCc2ccc(F)cc2F)c(Br)c1=O | 6.21 | 6.46
CC(C)n1c(N2CCC[C@H]2C(N)=O)nc(OCc2ccc(F)cc2F)c(Br)c1=O | 7.62 | 7.91
CC(C)n1c(OCCNC(=O)NCCO)nc(OCc2ccc(F)cc2F)c(Cl)c1=O | 6.40 | 6.72
CC(C)n1c(N2CC[C@@H](N)C2)nc(OCc2ccc(F)cc2F)c(Br)c1=O | 7.16 | 7.44
Cn1c(NCC(N)=O)nc(OCc2ccc(F)cc2F)c(Br)c1=O | 6.02 | 6.27
CC(C)n1c(CCC(=O)O)nc(OCc2ccc(F)cc2F)c(Cl)c1=O | 5.63 | 5.95
CNC(=O)CNc1nc(OCc2ccc(F)cc2F)c(Br)c(=O)n1C(C)C | 7.10 | 7.38
CC(C)n1c(NCCCNC(=O)CO)nc(OCc2ccc(F)cc2F)c(Br)c1=O | 7.90 | 8.23
CC(=O)N1CCC(Nc2nc(OCc3ccc(F)cc3F)c(Br)c(=O)n2C(C)C)CC1 | 7.06 | 7.38
CC(C)n1c(NCC(=O)NCCO)nc(OCc2ccc(F)cc2F)c(Br)c1=O | 6.66 | 6.98
CC(C)n1c(CCCC(N)=O)nc(OCc2ccc(F)cc2F)c(Cl)c1=O | 6.59 | 6.90
CC(C)n1c(N2CC[C@@H](NC(=O)OCc3ccccn3)C2)nc(OCc2ccc(F)cc2F)c(Br)c1=O | 5.91 | 6.12
CC(=O)N[C@@H]1CCN(c2nc(OCc3ccc(F)cc3F)c(Cl)c(=O)n2C(C)C)C1 | 6.24 | 6.43
CC(=O)NCCOc1nc(OCc2ccc(F)cc2F)c(Br)c(=O)n1C(C)C | 7.29 | 7.56
CNC(=O)CCCc1nc(OCc2ccc(F)cc2F)c(Br)c(=O)n1C(C)C | 6.25 | 6.59

SMILES | pIC50 | pKi
CC(C)n1c(OCCCC(=O)NCCO)nc(OCc2ccc(F)cc2F)c(Cl)c1=O | 6.48 | 6.80
CC(C)n1c(S(C)(=O)=O)nc(OCc2ccc(F)cc2F)c(Br)c1=O | 6.52 | 6.81
CC(C)n1c(N2CCNCC2)nc(OCc2ccc(F)cc2F)c(Br)c1=O | 6.14 | 6.42
CC(C)n1c(NCCNC(N)=O)nc(OCc2ccc(F)cc2F)c(Br)c1=O | 7.85 | 8.15
CC(C)n1c(OCCCC(N)=O)nc(OCc2ccc(F)cc2F)c(Cl)c1=O | 6.81 | 7.13
CC(C)n1c(NCC(N)=O)nc(OCc2ccc(F)cc2F)c(Cl)c1=O | 6.99 | 7.32
CC(C)n1c(NCCNS(C)(=O)=O)nc(OCc2ccc(F)cc2F)c(Br)c1=O | 8.77 | 9.69
CC(C)n1c(N2CC[C@H](NC(=O)CO)C2)nc(OCc2ccc(F)cc2F)c(Cl)c1=O | 6.09 | 6.28
CC(C)n1c(CCCCO)nc(OCc2ccc(F)cc2F)c(Br)c1=O | 6.62 | 6.94
CN[C@@H]1CCN(c2nc(OCc3ccc(F)cc3F)c(Br)c(=O)n2C(C)C)C1 | 7.89 | 8.20
CC(C)n1c(N2CCN(CC(N)=O)CC2)nc(OCc2ccc(F)cc2F)c(Br)c1=O | 6.60 | 6.98
CNC(=O)NCCOc1nc(OCc2ccc(F)cc2F)c(Cl)c(=O)n1C(C)C | 6.60 | 6.91
CC(C)n1c(NCCC(N)=O)nc(OCc2ccc(F)cc2F)c(Br)c1=O | 7.89 and 7.85 | 8.16 and 8.20
CC(C)n1c(NCC(=O)N2CCCC2)nc(OCc2ccc(F)cc2F)c(Br)c1=O | 6.67 | 6.99
CNC(=O)CCCc1nc(OCc2ccc(F)cc2F)c(Cl)c(=O)n1C(C)C | 6.31 | 6.60
COC(=O)c1ccc(CNc2nc(OCc3ccc(F)cc3F)c(Br)c(=O)n2C(C)C)cc1 | 6.20 | 6.52

Continued, values first:

pIC50 | pKi | SMILES
6.59 | 6.84 | CC(C)n1c(-c2ccc(C(N)=O)cc2)nc(OCc2ccc(F)cc2F)cc1=O
5.78 | 5.97 | CC(C)n1c(N2CC[C@H](N)C2)nc(OCc2ccc(F)cc2F)c(Cl)c1=O
6.48 | 6.85 | CC(C)n1c(OCCN)nc(OCc2ccc(F)cc2F)c(Br)c1=O
6.22 | 6.53 | CC(C)n1c(N2CC[C@@H](O)C2)nc(OCc2ccc(F)cc2F)c(Br)c1=O
6.79 | 7.10 | C=CCCc1nc(OCc2ccc(F)cc2F)c(Cl)c(=O)n1C(C)C
6.15 | 6.35 | CC(=O)N[C@H]1CCN(c2nc(OCc3ccc(F)cc3F)c(Cl)c(=O)n2C(C)C)C1
7.74 | 8.04 | CC(C)n1c(NC[C@H](O)CO)nc(OCc2ccc(F)cc2F)c(Br)c1=O
6.21 | 6.50 | CC(C)n1c(CCCC(=O)NCCO)nc(OCc2ccc(F)cc2F)c(Cl)c1=O
6.84 | 7.11 | CC(C)n1c(NCCN)nc(OCc2ccc(F)cc2F)c(Br)c1=O
8.34 | 8.76 | CC(C)n1c(N[C@@H](C)C(N)=O)nc(OCc2ccc(F)cc2F)c(Br)c1=O
7.76 | 8.05 | CC(C)n1c(NCCCC(N)=O)nc(OCc2ccc(F)cc2F)c(Br)c1=O
5.99 | 6.25 | CC(C)n1c(-c2cccc(C(N)=O)c2)nc(OCc2ccc(F)cc2F)c(Cl)c1=O
7.23 | 7.55 | CC(C)n1c(CNS(C)(=O)=O)nc(OCc2ccc(F)cc2F)c(Br)c1=O
6.23 | 6.51 | CC(C)n1c(CCCC(=O)NC[C@@H](C)O)nc(OCc2ccc(F)cc2F)c(Cl)c1=O
6.64 | 6.92 | CSc1cc(OCc2ccc(F)cc2F)c(Br)c(=O)n1C(C)C
